Target: Alpha-glucosidase MAL12 (Saccharomyces cerevisiae (strain ATCC 204508 / S288c), UniProt P53341)
Assay: Alpha-glucosidase Assay
Conditions: pH 6.8
Description: Total volume of 100 µL reaction mixture contained 70 µL 50 mM phosphate buffer pH 6.8, 10 µL test compound (0.5 mM in methanol) followed by the addition of 10 µL enzyme solution (0.057 units) in the buffer. The contents were mixed, pre-incubated for 10 min at 37 °C and pre-read at 400 nm. The reaction was initiated by the addition of 10 µL of 0.5 mM substrate (p-nitrophenyl glucopyranoside). After 30 min of incubation at 37 °C, absorbance of p-nitrophenol released was measured. Acarbose was used as positive control.

Chain of Alpha-glucosidase MAL12 (P53341 whole entry): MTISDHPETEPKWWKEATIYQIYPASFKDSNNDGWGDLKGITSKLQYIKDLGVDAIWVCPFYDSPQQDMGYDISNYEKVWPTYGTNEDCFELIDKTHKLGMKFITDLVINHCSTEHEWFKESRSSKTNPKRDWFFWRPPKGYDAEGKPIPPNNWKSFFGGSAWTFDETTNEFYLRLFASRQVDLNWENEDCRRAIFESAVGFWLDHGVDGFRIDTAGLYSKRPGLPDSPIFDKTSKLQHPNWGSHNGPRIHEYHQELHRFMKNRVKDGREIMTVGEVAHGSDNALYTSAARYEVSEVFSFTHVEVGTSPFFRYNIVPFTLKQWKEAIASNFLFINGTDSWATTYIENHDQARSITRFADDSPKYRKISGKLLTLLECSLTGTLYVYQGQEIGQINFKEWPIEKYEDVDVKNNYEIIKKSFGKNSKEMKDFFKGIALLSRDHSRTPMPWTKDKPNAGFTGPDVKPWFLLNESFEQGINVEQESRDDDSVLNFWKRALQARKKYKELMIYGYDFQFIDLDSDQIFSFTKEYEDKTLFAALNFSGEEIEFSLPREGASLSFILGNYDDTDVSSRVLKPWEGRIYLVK

Row | Structure (SMILES) | IC50 [µM]
1 | CC(C)(C)c1cc(/C=N/Nc2nc(-c3ccc(Cl)cc3)cs2)cc(C(C)(C)C)c1O [(E)-2,6-Di-t-butyl-4-((2-(4-(4-Chlorophenyl)thiazole-2-yl)-hydrazono)methyl)-phenol (8)] | 18.2
2 | C/C(=N\Nc1nc(-c2ccc(Cl)cc2)cs1)c1ccc([N+](=O)[O-])cc1Br [(E)-2-(2-(1-(2-Bromo-4-nitrophenyl)ethylidene)hydrazinyl)-4-(4-chlorophenyl)thiazole (2)] | 43.3
3 | Clc1ccc(-c2csc(N/N=C/c3ccc(/C=N/Nc4ncc(-c5ccc(Cl)cc5)s4)cc3)n2)cc1 [5-(4-chlorophenyl)-2-((E)-2-(4-((E)-(2-(4-(4-chlorophenyl)-thiazol-2-yl)hydrazono)methyl)benzylidene)hydrazinyl)thiazole (10)] | 342
4 | COc1ccc(-c2csc(N/N=C/c3ccc(OC)c(O)c3)n2)cc1 [(E)-2-Methoxy-5-((2-(4-(4-methoxyphenyl)thiazol-2-yl)-hydrazono)methyl)-phenol (20)] | 176
5 | COc1ccc(-c2csc(N/N=C/c3c4ccccc4cc4ccccc34)n2)cc1 [(E)-2-(2-(Anthracen-9-ylmethylene)hydrazinyl)-4-(4-methoxyphenyl)thiazole (13)] | 192
6 | O=[N+]([O-])c1ccccc1/C=N/Nc1nc(-c2ccc(Cl)cc2)cs1 [(E)-4-(4-Chlorophenyl)-2-(2-(2-nitrobenzylidene)hydrazinyl)-thiazole (3)] | 239
7 | Clc1ccc(-c2csc(N/N=C/c3ccc(OCc4ccccc4)cc3)n2)cc1 [(E)-2-(2-(4-(Benzyloxy)benzylidene)hydrazinyl)-4-(4-chlorophenyl)thiazole (7)] | 36.8
8 | Clc1ccc(-c2csc(N/N=C\c3cccc(/C=N/Nc4nc(-c5ccc(Cl)cc5)cs4)c3)n2)cc1 [1-((E)-(2-(4-(4-chlorophenyl)thiazol-2-yl)hydrazono)methyl)-3-((Z)-(2-(4-(4-chlorophenyl)thiazol-2-yl)hydrazono)methyl)benzene (9)] | 68.5
9 | COc1ccc(-c2csc(N/N=C\c3cccc(/C=N/Nc4nc(-c5ccc(OC)cc5)cs4)c3)n2)cc1 [1-((E)-(2-(4-(4-Methoxyphenyl)thiazol-2-yl)hydrazono)-methyl)-3-((Z)-(2-(4-(4-methoxyphenyl)thiazol-2-yl)hydrazono)-methyl)benzene (18)] | 55.4
10 | COc1ccc(-c2csc(N/N=C/c3ccc(OCc4ccccc4)cc3)n2)cc1 [(E)-2-(2-(4-(Benzyloxy)benzylidene)hydrazinyl)-4-(4-methoxyphenyl)thiazole (16)] | 99.2
11 | COc1ccc(-c2csc(N/N=C/c3ccc(/C=N/Nc4ncc(-c5ccc(OC)cc5)s4)cc3)n2)cc1 [5-(4-methoxyphenyl)-2-((E)-2-(4-((E)-(2-(4-(4-methoxyphenyl)thiazol-2-yl)hydrazono)methyl)benzylidene)-hydrazinyl)thiazole (19)] | 226
12 | COc1ccc(-c2csc(N/N=C/c3cc(C(C)(C)C)c(O)c(C(C)(C)C)c3)n2)cc1 [(E)-2,6-Di-tert-butyl-4-((2-(4-(4-Methoxyphenyl)thiazol-2-yl)hydrazono)-methyl)phenol (17)] | 123
13 | O=[N+]([O-])c1cccc(/C=N/Nc2nc(-c3ccc(Cl)cc3)cs2)c1 [(E)-4-(4-Chlorophenyl)-2-(2-(3-nitrobenzylidene)hydrazinyl)-thiazole (1)] | 220
14 | C/C(=N\Nc1nc(-c2ccc(Cl)cc2)cs1)c1ccc(N2CCCCC2)cc1 [(E)-4-(4-Chlorophenyl)-2-(2-(1-(4-(piperidin-1-yl)phenyl)-ethylidene)hydrazinyl)thiazole (4)] | 388

Other lines, results leading:

Row | IC50 [µM] | Structure (SMILES)
15 | 424 | COc1ccc(-c2csc(N/N=C(\C)c3cccc([N+](=O)[O-])c3)n2)cc1 [(E)-4-(4-Methoxyphenyl)-2-(2-(1-(3-nitrophenyl)-ethylidene)hydrazinyl)thiazole (12)]
16 | 146 | COc1ccc(-c2csc(N/N=C/c3ccc(N(C)C)cc3)n2)cc1 [(E)-4-((2-(4-(4-Methoxyphenyl)thiazol-2-yl)hydrazono)-methyl)-N,N-dimethylaniline (14)]
17 | 205 | CN(C)c1ccc(/C=N/Nc2nc(-c3ccc(Cl)cc3)cs2)cc1 [(E)-4-((2-(4-(4-Chlorophenyl)thiazol-2-yl)hydrazono)methyl)-N,N-dimethyl-aniline (5)]
18 | 176 | COc1ccc(/C=N/Nc2nc(-c3ccc(Cl)cc3)cs2)cc1O [(E)-5-((2-(4-(4-Chlorophenyl)thiazole-2-yl)hydrazono)-methyl)-2-methoxy-phenol (11)]
19 | 175 | Clc1ccc(-c2csc(N/N=C/c3ccc4ccccc4c3)n2)cc1 [(E)-4-(4-Chlorophenyl)-2-(2-(naphthalene-2-yl-methylene)hydrazinyl)thiazole (6)]
20 | 194 | COc1ccc(-c2csc(N/N=C/c3ccc4ccccc4c3)n2)cc1 [(E)-4-(4-Methoxyphenyl)-2-(2-(naphthalen-2-yl-methylene)-hydrazinyl)thiazole (15)]
21 | 46.4 | COc1ccc(-c2csc(N/N=C/c3ccc(O)c(O)c3)n2)cc1 [(E)-4-((2-(4-(4-Methoxyphenyl)thiazol-2-yl)hydrazono)-methyl)benzene-1,2-diol (21)]

Source: BindingDB's records for doi:10.1016/j.bioorg.2015.06.006 (Hazara University, 2015)
